According to US20240398701A1, “MANUFACTURING METHODS FOR GASTRIC RESIDENCE SYSTEMS” (Lyndra Therapeutics, Inc., priority 2023, published 2024):

Test: Time-dependent behaviour in simulated gastric fluid over seven days
Type: physicochemical
Source text: In some embodiments, a gastric residence system may include one or more time-dependent disintegrating matrices instead of or in addition to one or more enteric disintegrating matrices. A time-dependent disintegrating matrix may include one or more time-dependent polymers or linkers, that is, polymers that degrade in a time-dependent manner in the gastric environment. […] Thus, a polymer that degrades in a time-dependent manner can be readily prepared by mixing Plastoid B and triacetin; the degradation time of the Plastoid B-triacetin mixture can be extended by increasing the amount of Plastoid B used in the mixture (that is, using less triacetin in the mixture), while the degradation time can be decreased by decreasing the amount of Plastoid B used in the mixture (that is, using more triacetin in the mixture).

**Q.** With `CC(=O)OCC(COC(C)=O)OC(C)=O` [triacetin] as the compound, how does the “release from a polymer formulation” value read?
**A.** Its value is “releases from a polymer formulation in a time-dependent manner”.
